# Source: patent publication US20100160279A1, “Azetidine Derivatives as Muscarinic Receptor Antagonists” (Pfizer Inc, priority 2006, published 2010)
# Target: T1, human muscarinic M3 receptor (Homo sapiens, UniProt P20309)
# T1 construct: expressed in transfected cells
# Assay: hM3 β-Lac potency assay (cell based β-lactamase, inhibition of carbamyl choline induced signal)
# Details: CHO cells expressing human M3 receptor with NFAT-β-lactamase reporter; 80 nM carbamyl choline, 4 h; IC50 converted to Ki by Cheng-Prusoff
# Procedure: M3 potency was determined in CHO-K1 cells transfected with the NFAT-Betalactamase gene. CHO (Chinese Hamster Ovary) cells recombinantly expressing the human muscarinic M3 receptor were transfected with the NFAT_β-Lac_Zeo plasmid.
# The cells were re-suspended at 2×10^5 cells/ml in growth medium (composition as described above). […] Muscarinic M3 receptor signalling was stimulated using 80 nM carbamyl choline (Aldrich N240-9) incubated with the cells for 4 h at 37° C./5% CO2 and monitored at the end of the incubation period using a Tecan SpectraFluor+ plate reader (λ-excitation 405 nm, emission 450 nm and 503 nm). […] Inhibition curves were plotted and IC50 values generated using a 4-parameter sigmoid fit and converted to Ki values using the Cheng-Prusoff correction and the KD value for carbamyl choline in the assay.
# T1 sequence (P20309 whole entry): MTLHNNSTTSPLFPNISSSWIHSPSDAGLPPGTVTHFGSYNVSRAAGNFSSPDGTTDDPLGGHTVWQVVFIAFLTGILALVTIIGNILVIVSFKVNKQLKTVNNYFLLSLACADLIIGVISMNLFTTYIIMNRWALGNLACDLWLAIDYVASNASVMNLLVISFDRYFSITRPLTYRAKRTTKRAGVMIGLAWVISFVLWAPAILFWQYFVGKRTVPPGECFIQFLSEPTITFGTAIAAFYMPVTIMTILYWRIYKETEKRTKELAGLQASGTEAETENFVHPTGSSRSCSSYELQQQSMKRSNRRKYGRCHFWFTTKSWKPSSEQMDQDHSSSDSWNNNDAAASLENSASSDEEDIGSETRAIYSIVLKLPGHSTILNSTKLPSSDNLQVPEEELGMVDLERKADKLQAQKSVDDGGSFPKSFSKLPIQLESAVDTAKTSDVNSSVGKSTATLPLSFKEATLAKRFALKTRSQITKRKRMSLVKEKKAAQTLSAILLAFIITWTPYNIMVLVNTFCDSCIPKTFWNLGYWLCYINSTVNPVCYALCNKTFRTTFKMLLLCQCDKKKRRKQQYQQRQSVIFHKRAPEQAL
row,Compound,Ki [nM]
1,"CC(C)(CCC(C(N)=O)(c1ccccc1)c1ccccc1)N1CC(NCc2ccccc2)C1 [Example 2, 5-(3-Benzylamino-azetidin-1-yl)-5-methyl-2,2-diphenyl-hexanoic acid amide]",0.556
2,"CC(C)(CCC(C(N)=O)(c1ccccc1)c1ccccc1)N1CC(NCc2cccc(O)c2Cl)C1 [Example 3, 5-[3-(2-Chloro-3-hydroxy-benzylamino)-azetidin-1-yl]-5-methyl-2,2-diphenyl-hexanoic acid amide]",2.08
3,"CC(C)(CCC(C(N)=O)(c1ccccc1)c1ccccc1)N1CC(NCc2cc(Cl)ccc2O)C1 [Example 4, 5-[3-(5-Chloro-2-hydroxy-benzylamino)-azetidin-1-yl]-5-methyl-2,2-diphenyl-hexanoic acid amide]",56.8
4,"CC(C)(CCC(C(N)=O)(c1ccccc1)c1ccccc1)N1CC(NCc2cc(F)ccc2O)C1 [Example 5, 5-[3-(5-Fluoro-2-hydroxy-benzylamino)-azetidin-1-yl]-5-methyl-2,2-diphenyl-hexanoic acid amide]",2.53
5,"CC(C)(CCC(C(N)=O)(c1ccccc1)c1ccccc1)N1CC(NCc2cccc(O)c2)C1 [Example 6, 5-[3-(3-Hydroxy-benzylamino)-azetidin-1-yl]-5-methyl-2,2-diphenyl-hexanoic acid amide]",0.727
6,"CC(C)(CCC(C#N)(c1ccccc1)c1ccccc1)N1CC(NCc2cc(F)ccc2O)C1 [Example 7, 5-[3-(5-Fluoro-2-hydroxy-benzylamino)-azetidin-1-yl]-5-methyl-2,2-diphenyl-hexanenitrile]",4.37
7,"CC(C)(CCC(C#N)(c1ccccc1)c1ccccc1)N1CC(NCc2cc(Cl)ccc2O)C1 [Example 8, 5-[3-(5-Chloro-2-hydroxy-benzylamino)-azetidin-1-yl]-5-methyl-2,2-diphenyl-hexanenitrile]",> 315
8,"CC(C)(CCC(C(N)=O)(c1ccccc1)c1ccccc1)N1CC(NCc2ccccc2O)C1 [Example 9, 5-[3-(2-Hydroxy-benzylamino)-azetidin-1-yl]-5-methyl-2,2-diphenyl-hexanoic acid amide]",0.594
9,"CC(C)(CCC(C(N)=O)(c1ccccc1)c1ccccc1)N1CC(NCc2ccc(F)c(O)c2)C1 [Example 10, 5-[3-(4-Fluoro-3-hydroxy-benzylamino)-azetidin-1-yl]-5-methyl-2,2-diphenyl-hexanoic acid amide]",0.396
10,"CC(C)(CCC(C(N)=O)(c1ccccc1)c1ccccc1)N1CC(NCc2ccc(Cl)c(O)c2)C1 [Example 12, 5-[3-(4-Chloro-3-hydroxy-benzylamino)-azetidin-1-yl]-5-methyl-22-diphenyl-hexanoic acid amide]",0.905
11,"CC(C)(CCC(C(N)=O)(c1ccccc1)c1ccccc1)N1CC(Sc2cccc(O)c2)C1 [Example 15, 5-[3-(3-Hydroxy-phenylsulfanyl)-azetidin-1-yl]-5-methyl-2,2-diphenyl-hexanoic acid amide]",0.368
